Values quoted from earlier work as cited in patent US20170348276A1 (Acerus Pharmaceutical Corporation, priority 2016, published 2017).

How the values were obtained:
[1] = percent of the activity of Δ9-THC

Row | Compound | Bioavailability from oil-based oral delivery (oil-based capsule, oral) | oral bioavailability (oral administration, extensive first pass hepatic metabolism) | bioavailability, oral-mucosal/sublingual delivery (sprays/lozenges) | activity relative to Δ9-THC [1]
1 | C=C(C)[C@@H]1CCC(C)=C[C@H]1c1c(O)cc(CCCCC)cc1O [CBD, Cannabidiol] | ~6% | < 5% | up to 12% | 
2 | CCCCCc1cc(O)c2c(c1)OC(C)(C)c1ccc(C)cc1-2 [Cannabinol (CBN), Cannabinol] |  |  |  | 10%
